Reference: the supplement of paper PMC10949913

Key:
Details in all cases: 48 h
[1] = test system: CU-ACC2; test: area under concentration-response curve (viability) (AUC (a.u.)); higher = less active
How it was run: (§1)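 Cells from three adrenocortical carcinoma lines were seeded at 500–1,000 cells/well in 5 µL medium in 1,536-well plates. Each library compound was added as 23 nL at 11 concentrations, and after 48 h CellTiter-Glo was added for 15 minutes at room temperature before reading luminescence. Plate-wise normalisation to vehicle and empty-well controls preceded curve fitting. AC50 and area under the curve were calculated only for inhibitory or non-responding curve classes.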

[2] = test system: NCI-H295R; test: as above
How it was run: as §1

[3] = test system: CU-ACC2; test: AC50 viability; higher = less potent
How it was run: as §1

[4] = test system: CU-ACC1; test: area under concentration-response curve (viability) (AUC (a.u.)); higher = less active
How it was run: as §1

| SMILES | area under concentration-response curve [1] | area under concentration-response curve [2] | AC50 viability [3] | area under concentration-response curve [4] |
| --- | --- | --- | --- | --- |
| O=C(NCCCNc1nc(Nc2cccc(CN3CCOCC3)c2)ncc1C1CC1)C1CCC1 | 452 | 220 | 33.2 µM |  |
| CCOC(=O)c1ccnc(CNCC(=O)N(CC)CCN(C)C)c1 | 339 |  | 0.661 µM | 338 |
| Cn1ncc(NC(=O)c2nc(-c3c(F)cccc3F)sc2N)c1N1CC[C@@H](N)[C@H](F)CC1 | 500 | 516 | 18.6 µM | 525 |
| Cc1cccc(-c2[nH]c(C(C)(C)C)nc2-c2ccc3nccnc3c2)n1 | 331 |  | 0.263 µM | 293 |
| COc1cc(Nc2cnc(C#N)c(O[C@H](C)CN(C)C)n2)ncc1-c1cnn(C)c1 | 399 |  | 10.5 µM | 312 |
| C=CC(=O)N1CCC[C@H](n2c(=O)n(-c3ccc(Oc4ccccc4)cc3)c3c(N)ncnc32)C1 | 410 | 410 | 20.9 µM | 352 |
| C[C@@H](N)c1ccc(C(=O)Nc2ccnc3[nH]ccc23)cc1 | 297 |  | 2.63 µM | 349 |
| c1cc(CN2CCCNCCNCCCNCC2)ccc1CN1CCCNCCNCCCNCC1 | 337 | 294 | 0.0934 µM | 336 |
| Cc1c(NC(=O)OC[C@@H]2COCCN2)cn2ncnc(Nc3ccc4c(cnn4Cc4cccc(F)c4)c3)c12 | 544 |  | 18.6 µM | 393 |
| CC(/C=C/C(=O)NO)=C\[C@@H](C)C(=O)c1ccc(N(C)C)cc1 | 463 | 487 | 1.05 µM | 417 |
| CNC(=O)c1cccc2cc(Oc3ccnc4cc(OCC5(N)CC5)c(OC)cc34)ccc12 | 305 |  | 1.66 µM | 356 |
| C=C(C)[C@@H]1CCC(C)=C[C@H]1c1c(O)cc(CCCCC)cc1O | 489 |  | 18.6 µM | 467 |
| O=C(NCc1ccc([S+](=O)([O-])c2cccc(C(F)(F)F)c2)cc1)c1cnc2[nH]ncc2c1 | 362 | 407 | 0.0186 µM | 347 |
| CC(C)(N)c1ccc(-c2nc3ccccc3nc2-c2ccccc2)cc1 | 297 | 354 | 0.372 µM | 336 |
| Cc1cnc(C(=O)NCCc2ccc([S+](=O)([O-])NC(=O)NC3CCCCC3)cc2)cn1 | 404 |  | 33.2 µM | 355 |
| Cc1ccc(Nc2ncc3c(n2)N(C)C(=O)N(c2cc(NC(=O)c4cccc(C(F)(F)F)c4)ccc2C)C3)cn1 | 504 | 532 | 5.25 µM | 501 |
| Cc1cc(OCc2nnc(SC3CCCC3)n2-c2cccnc2)ccc1-c1ccc([S+](C)(=O)[O-])cc1 | 324 | 362 | 2.35 µM | 271 |
| N[S+](=O)([O-])c1ccc(Cc2c(-c3cccc(-c4ccccc4)c3)nn(-c3nc(C(=O)O)cs3)c2CC2CC2)cc1 | 388 | 405 | 5.9 µM | 373 |
| C[C@H](NC(=O)[C@@H]1C[C@@H](O)CN1C(=O)[C@@H](NC(=O)COCCCOCCNC(=O)C[C@@H]2\N=C(C3=CC=C(Cl)C=C3)/C4=C(SC(=C4C)C)[N]5C(=NN=C25)C)C(C)(C)C)C6=CC=C(C=C6)C7=C(C)N=CS7 | 478 |  | 8.33 µM | 474 |
| CN(C)C(=O)c1cc2cnc(Nc3ccc(N4CCNCC4)cn3)nc2n1C1CCCC1 | 439 | 474 | 33.2 µM | 434 |
| COc1ccc2c(c1)[C@]1(C[C@H]1c1ccc3c(/C=C/c4ccc(CN5C[C@@H](C)O[C@@H](C)C5)cc4)n[nH]c3c1)C(=O)N2 | 344 |  | 1.86 µM | 384 |
| Nc1ccc(C(=O)Nc2cccc(-c3nc(N4CCOCC4)c4oc5ncccc5c4n3)c2)cn1 | 414 | 396 | 1.48 µM | 434 |
| O=C(CCCCCCNC(=O)c1cnc(N(c2ccccc2)c2ccccc2Cl)nc1)NO | 502 |  | 11.8 µM | 464 |
| CO[C@@H]1C(N(C)C(=O)c2ccccc2)C[C@H]2O[C@]1(C)n1c3ccccc3c3c4c(c5c6ccccc6n2c5c31)C(=O)NC4=O (some centres undefined) | 286 |  | 0.186 µM | 362 |
| CN1CCN(CCOc2cc(OC3CCOCC3)c3c(Nc4c(Cl)ccc5c4OCO5)ncnc3c2)CC1 | 548 |  | 23.5 µM | 547 |
| CCN1C(=O)\C(=C/C2=CN=C(NCCC3CCN(C)CC3)N=C12)C4=CC=C(C=C4Cl)C5=CN=CC(=N5)C | 624 |  | 2.63 µM | 645 |

| SMILES | area under concentration-response curve [1] | area under concentration-response curve [2] | AC50 viability [3] | area under concentration-response curve [4] |
| --- | --- | --- | --- | --- |
| C=CC[C@@H]1/C=C(\C)C[C@H](C)C[C@H](OC)[C@H]2O[C@@](O)(C(=O)C(=O)N3CCCC[C@H]3C(=O)O[C@H](/C(C)=C/[C@@H]3CC[C@@H](O)[C@H](OC)C3)[C@H](C)[C@@H](O)CC1=O)[C@H](C)C[C@@H]2OC | 390 |  | 18.6 µM | 383 |
| C/C(=N\NC(=S)N1CCC1)c1ccccn1 | 453 | 396 | 0.417 µM | 292 |
| COC(=O)Nc1nc2cc(Sc3ccccc3)ccc2[nH]1 | 393 | 431 | 5.25 µM | 368 |
| CC1(C)CNc2cc(NC(=O)c3cccnc3NCc3ccncc3)ccc21 | 317 | 373 | 0.263 µM | 379 |
| C=CC(=O)Nc1cccc(Nc2nc(Nc3ccc(OCCOC)cc3)ncc2F)c1 | 597 | 545 | 20.9 µM |  |
| CN[C@@H](C)C(=O)N[C@H](C(=O)N1CCC[C@H]1C(=O)Nc1snnc1-c1ccccc1)C1CCCCC1 | 405 | 401 | 1.66 µM | 413 |
| COc1c(C)cnc(Cn2cnc3c(Cl)nc(N)nc32)c1C | 378 |  | 0.661 µM | 361 |
| Cc1[nH]c(/C=C2\C(=O)Nc3ccc(F)cc32)c(C)c1C(=O)NCCN1CCCC1 | 525 |  | 14.4 µM | 522 |
| C[C@]1(O)CC(C1)C2=NC(=C3[N]2C=CN=C3N)C4=CC5=C(C=C4)C=CC(=N5)C6=CC=CC=C6 (centres undefined) | 411 | 373 | 18.6 µM |  |
| CC(C)n1cnc2c(NCCc3ccc(O)cc3)nc(-c3csc4ccccc34)nc21 | 325 |  | 9.34 µM | 335 |
| CCN(CC)CCOc1ccc(/C(=C(\Cl)c2ccccc2)c2ccccc2)cc1 | 203 | 131 | 10.5 µM |  |
| CNCc1ccc(-c2[nH]c3cc(F)cc4c3c2CCNC4=O)cc1 | 495 |  | 26.3 µM | 416 |
| O=C(Nc1cc(Cl)cc2c1[nH]c1cnccc12)c1cccnc1 | 402 |  | 0.182 µM |  |
| COc1cc2nc(-c3ccc(N4CCN(C)CC4)cc3)nc(NCCN3CCOCC3)c2cc1OC | 397 |  | 3.72 µM |  |
| Fc1ccc(-c2nc(-c3ccccc3F)[nH]c2-c2ccncc2)cc1 | 399 |  | 33.2 µM | 336 |
| O=C(Nc1ccc([S+](=O)([O-])N2CCOCC2)cc1)c1cc(Cl)ccc1N[S+](=O)([O-])c1ccc(Cl)s1 | 530 |  | 18.6 µM | 481 |
| OCc1ccc(-c2ccc(-c3ccc(CO)s3)o2)s1 | 532 |  | 37.2 µM | 507 |
| C\C1=C(\[C@@H](OC2=C1C=CC(=C2)O)C3=CC=C(OCCN4CCCCC4)C=C3)C5=CC=C(O)C=C5 | 333 |  | 0.295 µM | 296 |
| O=C(O)[C@H](Cc1c[nH]c2ccccc12)N1C(=O)c2ccccc2C1=O | 338 |  | 37.2 µM |  |
| FC1=CC2=C3[N](CCN(CC3=C1)C(=O)N4CCCCC4)C=C2C/5=C(C(=O)NC5=O)\C6=CN=C7C=CC=C[N]67 | 549 |  | 18.6 µM |  |
| CC(C)[C@H](CO)Nc1nc(Nc2cccc(Cl)c2)c2ncn(C(C)C)c2n1 | 591 |  | 29.5 µM | 551 |
| CC1(C)C(N(O)C(=O)Nc2ccc(Cl)cc2)N(c2ccc(Cl)cc2)C(=O)N1CC(=O)N/N=C/C=C/c1ccc([N+](=O)[O-])o1 (centres undefined) | 561 |  | 23.5 µM | 511 |
| [2H]C([2H])([2H])C(O)([C@@H](C)/C=C/[C@@H](C)[C@H]1CC[C@H]2/C(=C/C=C3C[C@@H](O)C[C@H](O)C3)CCC[C@]12C)C([2H])([2H])[2H] | 309 |  | 0.235 µM | 347 |
| CONC(=O)c1ccccc1Nc1cc(Nc2cc(C)nn2C(C)C)ncc1Cl | 459 |  | 16.6 µM | 455 |
| CC#CC(=O)N1CC[C@@H](n2c(=O)n(-c3ccc(Oc4ccccc4)cc3)c3c(N)ncnc32)C1 | 428 |  | 13.2 µM | 425 |
